In patent publication US20160331779A1 (priority 2015, published 2016):
Values joined by “and” are separate entries in the source; they are usually repeats but may differ in a detail not shown here. Identical values can stand only once. Like-named read-outs stand apart in the source and are kept apart here.

How the values were obtained:
[1] = tested on: streptokinase enzyme from S. pyogenes; assay: streptokinase inactivation, clot formation enzymatic assay; type: biochemical; conditions: streptokinase 175 U/mL incubated 1 hour; fibrin remained insoluble, glass bead remained at top
Protocol: Inactivation of streptokinase was determined by clot formation enzymatic assay (Sigma Aldrich, St. Louis, Mo.), whereby thrombin converts the soluble fibrinogen into […] (Crew 2013). In the presence of streptokinase enzyme from S. pyogenes, the insoluble fibrin is converted into soluble fibrin fragments. Several hours before the study, streptokinase 175 U/mL) was incubated with the irrigation solution for 1 hour, followed by inactivation of excess irrigation solution by adding an equal volume of 20 mM methionine for 1 hour at room temperature.
In a separate glass tube, fibrinogen solution containing borate buffer, gelatin diluent, and plasminogen were mixed by swirling, and then equilibrated at 37° C. for 3 minutes. Irrigation solution and methionine treated streptokinase was added to the solution, mixed by swirling, and equilibrated at 37° C. for 1 minute prior to the addition of thrombin. The solution was mixed by swirling and equilibrated at 37° C. for approximately 2-3 minutes to allow for clot formation. A 4 mm glass bead was added to the top of the reaction mixture, and the time for the glassbead to touch the bottom of the tube was observed. In this clot assay, 0.001 μg/mL of the hypochlorous acid completely inactivated streptokinase, causing the fibrin to remain insoluble in solution, and the glass bead to remain at the top of the reaction mixture.

A549 cells = conditions: pH 4
[2] = 2.5% NaOCl, cited from earlier work
[3] = tested on: root canal microorganisms; conditions: 2.5% NaOCl, after biomechanical preparation; cited from earlier work
[4] = target: alpha-hemolysin toxin of S. aureus (Staphylococcus aureus, UniProt P09616); type: cell-based
Aspergillus flavus = conditions: added to the fungal growth medium prior to inoculation; cited from earlier work

alpha-hemolysin toxin of S. aureus, sequence (P09616 27-319 limits assumed): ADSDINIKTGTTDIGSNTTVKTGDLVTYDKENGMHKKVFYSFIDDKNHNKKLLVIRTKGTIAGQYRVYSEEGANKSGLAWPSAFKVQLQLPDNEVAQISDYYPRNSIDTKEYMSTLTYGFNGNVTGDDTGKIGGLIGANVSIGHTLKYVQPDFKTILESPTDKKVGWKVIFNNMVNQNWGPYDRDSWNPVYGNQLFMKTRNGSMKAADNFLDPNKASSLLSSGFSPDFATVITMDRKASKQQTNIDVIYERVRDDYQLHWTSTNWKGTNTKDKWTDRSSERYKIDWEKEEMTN

SMILES	concentration that completely inactivated streptokinase [1] [µg/mL]	Dilution of wound exudate cytotoxic to A549 cells (A549 cells)	endotoxins reduced ([2]; 7 days after biomechanical preparation) [%]	endotoxins reduced ([2]; immediately after biomechanical preparation) [%]	root canal microorganisms eliminated [3] [%]	EC50 [4]	NaOCl concentration that completely inhibited the fungal growth (Aspergillus flavus) [mM]
OCl [HOCl, hypochlorous acid]	0.001	1:4	–	–	–	–	–
[Na+].[O-]Cl [hypochlorite, sodium hypochlorite]	–	–	83.2	88.8	100	0.95 ± 0.18 µg/mL and 0.99 ± 0.06 µg/mL	2.8
